From patent US7662824B2, “Acylhydrazones as kinase modulators” (Janssen Pharmaceutica NV, priority 2005, dated 2010)
≈ marks a conversion by molar mass, not a printed value.

What was measured:
[1] = target: T1, c-Met (Homo sapiens, UniProt P08581); experiment: Delfia autophosphorylation kinase assay on the c-Met; assay type: biochemical; set-up: The purified His6 tagged cytoplasmic domain of c-Met was diluted to a concentration of 500 ng/ml; made in house; host or cells: Sf9 insect cells with recombinant baculovirus; Large-scale expression and purification were done by the contract lab Pan Vera; details: His6 tagged cytoplasmic domain of c-Met, 1 μM ATP; read-out: c-Met Delfia Autophos IC50
Method: This example describes the cloning, expression, and purification of the cytoplasmic domain of c-Met which has the c-Met receptor tyrosine kinase activity.
A DELFIA time resolved fluorescence assay was developed for screening of compounds that decreases the autophosphorylation thus the kinase activity of c-Met.
The DELFIA assay is non-radioactive. The autophophorylation of the c-Met is measured by an anti-phosphotyrosine antibody coupled to an Europium tag.
A major advantage of this format is that it allowed for the development of an autophosphorylation assay using Ni-chelate plates which bind the hexa-his tag on the recombinant Met kinase. Autophosphorylation assay allows to use a known substrate, Met kinase itself, for the phosphorylation. The DELFIA Met autophosphorylation assay is very sensitive with a signal to noise ratio in excess of 50:1.
The assay procedure for screening is as follows. The purified His6 tagged cytoplasmic domain of c-Met was diluted to a concentration of 500 ng/ml in enzyme dilution buffer (50 mM Tris-HCl, pH8.0, 0.1% BSA) and dispensed to assay plates at a volume of 50 μl per well. Black opaque HisGrab Nickel coated 96 well plates (Pierce, Rockford, Ill.) were selected to run the assay. Next, 2.5 μl of compound in 40% DMSO was added to test wells, 2.5 μl of 40% DMSO only was added to the negative control wells. The autophosphorylation reaction was initiated upon the addition of 50 μl of reaction buffer, 50 mM Tris-HCl, pH 8.0, 10 mM MgCl2, 0.1 mM Na3VO4, 1 mM DTT, 1 μM ATP. Plates were incubated at room temperature for 1 hour followed by 2 washes with 200 μl/well of PBS. Europium conjugated anti-phosphotyrosine antibody, Eu-PY20 from Perkin Elmer was diluted to 50 ng/ml in Delfia AB buffer (Perkin Elmer, Boston, Mass.), added to the 96 well assay plates at a volume of […], and incubated at room temperature for 2 hours. Assay plates were then washed 4 times each with 200 μl/well of Delfia wash buffer (Perkin Elmer). After the final wash 150 μl of Delfia Enhancement solution (Perkin Elmer) was added to each well of the assay plate and incubated at room temperature for 1 hour. Plates were read on an LJL Analyst instrument (Molecular Devices; Sunnyvale, Calif.) with filter settings of 360 excitation, 620 emission, and 410 dichroic. IC50 values were calculated using Graphpad Prism software (Graphpad Software; San Diego, Calif.).
Target sequence in this assay (P08581 956-1390 limits assumed): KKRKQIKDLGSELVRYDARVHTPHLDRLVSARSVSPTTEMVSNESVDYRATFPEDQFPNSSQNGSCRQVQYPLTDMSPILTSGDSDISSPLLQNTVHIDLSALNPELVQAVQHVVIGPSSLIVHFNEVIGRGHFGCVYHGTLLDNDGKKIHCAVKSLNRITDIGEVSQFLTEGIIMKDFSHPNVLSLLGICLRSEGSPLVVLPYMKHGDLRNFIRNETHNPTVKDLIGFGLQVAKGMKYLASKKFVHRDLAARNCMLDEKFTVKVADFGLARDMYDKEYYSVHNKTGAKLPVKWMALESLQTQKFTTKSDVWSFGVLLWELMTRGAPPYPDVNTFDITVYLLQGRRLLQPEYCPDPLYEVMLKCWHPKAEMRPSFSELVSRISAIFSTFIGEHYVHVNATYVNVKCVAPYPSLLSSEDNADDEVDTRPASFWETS

[2] = Aqueous solubility assay; details: water with 0.4% DMSO, kinetic from dmso stock
Method: Water, PBS and aqueous HCl at pH2 having a final DMSO content of 0.4%, with the final DMSO concentration reaching 40 μM. Samples were placed in the incubator and shaken for 15 minutes.

[3] = target: T1, c-Met; experiment: Fluorescence polarization assay on the kinase activity of c-Met; assay type: biochemical; set-up: The c-Met kinase domain consists amino acid 1046-1390 of the c-Met protein; made in house; host or cells: Sf9 insect cells with baculovirus; details: 6H-TEV-cMet, poly Gly4Tyr substrate, 10 μM ATP; read-out: c-Met FP Enz IC50
From the text: A fluorescence polarization assay (FP) was developed for screening of compounds that decreases the kinase activity of c-Met.
A protein (6H-TEV-cMet) comprising c-Met kinase domain was cloned, recombinantly expressed and purified following a procedure similar to that as described in Example A. The protein comprises a His tag consisting of six histidines at its N-terminal, a TEV protease cleavage site, and the c-Met kinase domain. The c-Met kinase domain consists amino acid 1046-1390 of the c-Met protein as listed in GenBank protein accession number P08581.
For the c-Met kinase assay, the 6H-TEV-cMet was used as the enzyme, and a poly Gly4Tyr peptide (Sigma, P-0275) was used as the substrate. The kinase reaction was performed in a volume of 10 μl in HE microplates (LJL Biosystems). Assay conditions were as follows: 100 mM HEPES pH 7.5, 0.01% Tween-20, 1 mM DTT, 5 mM MgCl2, 10 μM ATP, 10 μg/ml poly Gly4Tyr. The kinase reaction was initiated upon addition of 10 nM 6H-TEV-cMet. After a 12 minute incubation at room temperature the reaction was terminated with […] 50 mM EDTA.
Phosphorylation of the peptide substrate was detected with PanVera Tyrosine Kinase Assay Kit, Green reagents (P2837). Five minutes after the addition of EDTA, 10 μl of antibody/tracer mix (Pan Vera reagents, 1:1:3 dilution of antibody: Tracer: FP dilution buffer, Cat. # P2837) was added to each well. Plates were allowed to incubate for 30 minutes at room temperature and fluorescence polarization was measured with an LJL Analyst instrument (Molecular Devices; Sunnyvale, Calif.) with excitation=485 nm filter and emission=530 nm filter. IC50 values were calculated from triplicate sets of data using Graphpad Prism software (Graphpad Software; San Diego, Calif.).
Target sequence in this assay (P08581 1046-1390): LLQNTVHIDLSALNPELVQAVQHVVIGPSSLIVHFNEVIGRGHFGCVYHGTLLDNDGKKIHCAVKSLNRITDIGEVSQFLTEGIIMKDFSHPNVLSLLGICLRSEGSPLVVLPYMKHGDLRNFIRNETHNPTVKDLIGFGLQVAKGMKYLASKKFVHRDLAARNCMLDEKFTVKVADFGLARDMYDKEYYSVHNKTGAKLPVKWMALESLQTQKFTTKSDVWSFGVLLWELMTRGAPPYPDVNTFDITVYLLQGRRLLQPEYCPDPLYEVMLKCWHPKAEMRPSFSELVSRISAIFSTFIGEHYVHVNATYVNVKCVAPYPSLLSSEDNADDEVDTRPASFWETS

IC50 [1]: 24 nM | solubility at 15 min [2]: 38.1 µM (≈ 18.2 µg/mL) | IC50 [3]: 24 nM
Structure (SMILES): O=C(Cc1ccc2c(c1)CCO2)N/N=C1\C(=O)Nc2cc(C(=O)NCCN3CCOCC3)ccc21 [Example 3, 3-[(2-2,3-Dihydro-benzofuran-5-yl-acetyl)-hydrazono]-2-oxo-2,3-dihydro-1H-indole-6-carboxylic acid(2-morpholin-4-yl-ethyl)-amide]
